Results on 23 compounds are retold here after US20170253601A1, “Substituted Pyrrolidine Compounds” (EPIZYME, INC., priority 2014, published 2017).

A word on the IC50: it is the point on the concentration scale where inhibition reaches its midpoint. One may read the pIC50 as the IC50 on a negative log10 scale, so that one unit is a factor of ten.

Molecules are shown by their SMILES. pIC50: −log10 of the molar value.

For one experiment, the target named is T1, SMYD2 (Homo sapiens, UniProt Q9NRG4).
T1 construct: Full length SMYD2 (NP 064582.2) was cloned; His6 (N, cleaved yes); FLAG (N); made in house; host or cells: Sf9 insect cells
T1 sequence (Q9NRG4 whole entry): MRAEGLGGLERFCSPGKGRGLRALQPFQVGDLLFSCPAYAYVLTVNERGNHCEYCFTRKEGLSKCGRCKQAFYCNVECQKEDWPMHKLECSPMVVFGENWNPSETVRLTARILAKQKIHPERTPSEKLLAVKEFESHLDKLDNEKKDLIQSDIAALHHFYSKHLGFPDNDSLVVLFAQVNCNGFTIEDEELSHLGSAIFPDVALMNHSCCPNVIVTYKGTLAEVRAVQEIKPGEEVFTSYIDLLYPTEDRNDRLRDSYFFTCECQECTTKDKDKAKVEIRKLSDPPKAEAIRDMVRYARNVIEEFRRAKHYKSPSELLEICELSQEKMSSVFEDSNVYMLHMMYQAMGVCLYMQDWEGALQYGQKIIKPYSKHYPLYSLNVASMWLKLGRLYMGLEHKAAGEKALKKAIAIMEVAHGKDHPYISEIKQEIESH
In words: SMYD2 Biochemical Assay (3H-SAM, biotinylated peptide substrate, Flashplate). The conditions noted are these: IC50 values are an average of n = 1 to n = 50; read-out: SMYD2 Biochem IC50 (μM)*. The text has this: S-adenosylmethionine (SAM), S-adenosylhomocysteine (SAH), bicine, Tween20, dimethylsulfoxide (DMSO), bovine skin gelatin (BSG), and Tris(2-carboxyethyl)phosphine hydrochloride (TCEP) were purchased from Sigma-Aldrich at the highest level of purity possible. ^3H-SAM was purchase from American Radiolabeled Chemicals with a specific activity of 80 Ci/mmol. 384-well streptavidin Flashplates were purchased from PerkinElmer.
Peptide was synthesized with a N-terminal linker-affinity tag motif and a C-terminal amide cap by 21st Century Biochemicals. The peptide was high-performance liquid chromatography (HPLC) purified to greater than 95% purity and confirmed by liquid chromatography mass spectrometry (LC-MS). The sequence was […](K-Biot)-amide. (SEQ ID No: 3)
Full length SMYD2 (NP 064582.2) was cloned into a pFastbac-Htb-lic vector with an N-terminal His6 tag and FLAG tag, preceded by a TEV protease cleavage site. The protein was expressed in Sf9 insect cells. Cells were resuspended in lysis buffer (25 mM HEPES-NaOH, pH 7.5, 200 mM NaCl, 5% glycerol, and 5 mM β-ME) and lysed by sonication. The protein was purified by Ni-NTA (Qiagen), followed by TEV cleavage to remove the His6 tag, subtractive Ni-NTA (Qiagen), and gel filtration chromatography using an […] (GE Healthcare). Purified protein was stored in 20 mM Tris-HCl, pH 8.0, 100 mM NaCl, and 1 mM TCEP.
The assays were all performed in a buffer consisting of 20 mM Bicine (pH=7.6), 1 mM TCEP, 0.005% Bovine Skin Gelatin, and 0.002% Tween20, prepared on the day of use. Compounds in 100% DMSO (1 ul) were spotted into a polypropylene 384-well V-bottom plates (Greiner) using a Platemate Plus outfitted with a 384-channel head (Thermo Scientific). DMSO (1 ul) was added to Columns 11, 12, 23, 24, rows A-H for the maximum signal control and 1 ul of SAH, a known product and inhibitor of SMYD2, was added to columns 11, 12, 23, 24, rows I-P for the minimum signal control. A cocktail (40 ul) containing the SMYD2 enzyme was added by Multidrop Combi (Thermo-Fisher). The compounds were allowed to incubate with SMYD2 for 30 min at room temperature, then a cocktail (10 ul) containing ^3H-SAM and peptide was added to initiate the reaction (final volume=51 ul). The final concentrations of the components were as follows: SMYD2 was 1.5 nM, ^3H-SAM was 10 nM, and peptide was 60 nM, SAH in the minimum signal control wells was 1000 uM, and the DMSO concentration was 2%. The assays were stopped by the addition of non-radioactive SAM (10 ul) to a final concentration of 600 uM, which dilutes the ^3H-SAM to a level where its incorporation into the peptide substrate is no longer detectable. 50 ul of the reaction in the 384-well polypropylene plate was then transferred to a 384-well Flashplate and the biotinylated peptides were allowed to bind to the streptavidin surface for at least 1 hour before being washed three times with 0.1% Tween20 in a Biotek ELx405 plate washer. The plates were then read in a PerkinElmer TopCount plate reader to measure the quantity of ^3H-labeled peptide bound to the Flashplate surface, measured as disintegrations per minute (dpm) or alternatively, referred to as counts per minute (cpm).
Where dpm=disintegrations per minute, cmpd=signal in assay well, and min and max are the respective minimum and maximum signal controls.
Where top and bottom are the normally allowed to float, but may be fixed at 100 or 0 respectively in a 3-parameter fit. The Hill Coefficient normally allowed to float but may also be fixed at 1 in a 3-parameter fit. I is the compound concentration.
SMYD2 biochemical assay data for representative Compounds of the Disclosure are presented in Tables 1-3 in the column titled “SMYD2 Biochem IC50 (μM).”
As for `CC(C)c1cc(C(=O)N[C@H]2C[C@@H](CNC(=O)C3CCCCC3)N(C3CC3)C2)no1` (racemic) [compound 224, (±)-cis-N-[5-[(cyclohexyl-formamido)methyl]-1-cyclopropylpyrrolidin-3-yl]-5-(propan-2-yl)-1,2-oxazole-3-carboxamide], the IC50 is above 50 µM.
With `C[C@@H]1CN(Cc2ccc(N(C)C)cc2)C[C@H]1NC(=O)c1cc(C2CC2)on1` (racemic) [compound 148, (±)-trans-5-cyclopropyl-N-[1-{[4-(dimethyl-amino)phenyl]methyl}-4-methylpyrrolidin-3-yl]-1,2-oxazole-3-carboxamide], the IC50 turned out to be 37 µM.
Still for that read-out and setting: the figure for `CC(C)N1C[C@H](C)[C@H](NC(=O)c2cc(C(C)(C)C)on2)C1` (racemic) [compound 201, (±)-cis-5-tert-butyl-N-[4-methyl-1-(propan-2-yl)pyrrolidin-3-yl]-1,2-oxazole-3-carboxamide] is above 50 µM.
On to `CC(C)N1C[C@H](C)[C@H](NC(=O)c2cc(C3(C)CCC3)on2)C1` (racemic) [compound 260, (±)-cis-N-[4-methyl-1-(propan-2-yl)pyrrolidin-3-yl]-5-(1-methyl-cyclobutyl)-1,2-oxazole-3-carboxamide], for which the IC50 was above 50 µM.
The same measure, in the same setting: the figure for `C[C@H]1CN(CCC2CCNCC2)C[C@H]1NC(=O)c1cc(C2CC2)on1` (racemic) [compound 337, (±)-cis-5-cyclopropyl-N-{4-methyl-1-[2-(piperidin-4-yl)ethyl]pyrrolidin-3-yl}-1,2-oxazole-3-carboxamide] is 10.6 µM; for `C[C@H]1CN(CC(F)(F)F)C[C@H]1NC(=O)c1cc(C2CC2)on1` (racemic) [compound 262, (±)-cis-5-cyclopropyl-N-[4-methyl-1-(2,2,2-trifluoroethyl)pyrrolidin-3-yl]-1,2-oxazole-3-carboxamide] it is above 50 µM.
Take `C[C@@H]1CN(CC(=O)N2CCN(C)CC2)C[C@H]1NC(=O)c1cc(C2CC2)on1` (racemic) [compound 294, (±)-trans-5-cyclopropyl-N-{4-methyl-1-[2-(4-methylpiperazin-1-yl)-2-oxoethyl]pyrrolidin-3-yl}-1,2-oxazole-3-carboxamide]: the IC50 was above 50 µM.
On the same count and under the same terms, in the case of `COc1ccc(N2C[C@@H](C)[C@H](NC(=O)c3cc(C4CC4)on3)C2)cc1` (racemic) [compound 299, (±)-trans-5-cyclopropyl-N-[1-(4-methoxyphenyl)-4-methylpyrrolidin-3-yl]-1,2-oxazole-3-carboxamide] it was above 50 µM.
Same read-out and setting: in the case of `CC(C)c1cc(C(=O)N[C@H]2C[C@H](CNC(=O)c3ccccc3)N(C3CC3)C2)no1` (stereo in doubt) [compound 189, (±)-trans-N-[1-cyclopropyl-5-[(phenyl-formamido)methyl]pyrrolidin-3-yl]-5-(propan-2-yl)-1,2-oxazole-3-carboxamide] it was above 50 µM; in that of `C[C@H]1CN(CC(=O)N2CCCC2)C[C@H]1NC(=O)c1cc(C2CC2)on1` (racemic) [compound 264, (±)-cis-5-cyclopropyl-N-[4-methyl-1-[2-oxo-2-(pyrrolidin-1-yl)ethyl]pyrrolidin-3-yl]-1,2-oxazole-3-carboxamide], above 50 µM.
The same measure, in the same setting: in the case of `CC(C)N1C[C@H](NC(=O)c2cc(C3CC3)on2)[C@@H](C2CC2)C1` (racemic) [compound 138, (±)-trans-5-cyclopropyl-N-[4-cyclopropyl-1-(propan-2-yl)pyrrolidin-3-yl]-1,2-oxazole-3-carboxamide] it was 48.1 µM; in that of `C[C@H]1CN(CC(F)F)C[C@H]1NC(=O)c1cc(C2CC2)on1` (racemic) [compound 216, (±)-cis-5-cyclopropyl-N-[1-(2,2-difluoroethyl)-4-methylpyrrolidin-3-yl]-1,2-oxazole-3-carboxamide], above 50 µM.
As to `CN1C[C@H](NC(=O)c2cc(C3CC3)on2)[C@@H](C(C)(C)C)C1` (racemic) [compound 144, (±)-trans-N-[4-tert-butyl-1-methylpyrrolidin-3-yl]-5-cyclopropyl-1,2-oxazole-3-carboxamide], the IC50 was above 50 µM.
On the same count and under the same terms, in the case of `C[C@@H]1CN(CC2CCNCC2)C[C@H]1NC(=O)c1cc(C2CC2)on1` (racemic) [compound 256, (±)-trans-5-cyclopropyl-N-[4-methyl-1-(piperidin-4-ylmethyl)pyrrolidin-3-yl]-1,2-oxazole-3-carboxamide] it was above 50 µM; in that of `C[C@@H]1CN(CC(C)(C)C)C[C@H]1NC(=O)c1cc(C2CC2)on1` (racemic) [compound 130, (±)-trans-5-cyclopropyl-N-[(3S,4R)-1-(2,2-dimethylpropyl)-4-methylpyrrolidin-3-yl]-1,2-oxazole-3-carboxamide], above 50 µM; in that of `C[C@@H]1CN(Cc2ccnc3ccccc23)C[C@H]1NC(=O)c1cc(C2CC2)on1` (racemic) [compound 159, (±)-trans-5-cyclopropyl-N-[4-methyl-1-(quinolin-4-ylmethyl)pyrrolidin-3-yl]-1,2-oxazole-3-carboxamide], above 50 µM.
Turning to `CNC(=O)CN1C[C@@H](C)[C@H](NC(=O)c2cc(C3CC3)on2)C1` (racemic) [compound 286, (±)-trans-5-cyclopropyl-N-{4-methyl-1-[(methyl-carbamoyl)methyl]pyrrolidin-3-yl}-1,2-oxazole-3-carboxamide], the IC50 was above 50 µM.
For `C[C@H]1CN(Cc2ccnc3ccccc23)C[C@H]1NC(=O)c1cc(C2CC2)on1` (racemic) [compound 197, (±)-cis-5-cyclopropyl-N-[4-methyl-1-(quinolin-4-ylmethyl)pyrrolidin-3-yl]-1,2-oxazole-3-carboxamide], the IC50 was above 50 µM.
Still for that read-out and setting: the figure for `C[C@@H]1CN(Cc2ccc(Cl)cc2Cl)C[C@H]1NC(=O)c1cc(C2CC2)on1` (racemic) [compound 136, (±)-trans-5-cyclopropyl-N-[1-[(2,4-dichloro-phenyl)methyl]-4-methylpyrrolidin-3-yl]-1,2-oxazole-3-carboxamide] is above 50 µM; for `C[C@@H]1CN(Cc2cccc3c2OCO3)C[C@H]1NC(=O)c1cc(C2CC2)on1` (racemic) [compound 135, (±)-trans-N-[1-(2H-1,3-benzodioxol-4-ylmethyl)-4-methyl-pyrrolidin-3-yl]-5-cyclopropyl-1,2-oxazole-3-carboxamide] it is above 50 µM.

The same experiment, now with this note: Table 1; average of n = 1 to n = 50; read-out: SMYD2 Biochem IC50.
Consider `C[C@@H]1CNC[C@H]1NC(=O)c1cc(C2CC2)on1` (racemic) [compound 43, (±)-trans-5-cyclopropyl-N-(4-methyl-pyrrolidin-3-yl)isoxazole-3-carboxamide], for which the pIC50 is below 4.30.

The same experiment, now with this note: Table 2; average of n = 1 to n = 50; read-out: SMYD2 Biochem IC50.
On to `C[C@@H]1CN(S(=O)(=O)C2CCNCC2)C[C@@H]1NC(=O)c1cc(C2CC2)on1` (racemic) [compound 67, (±)-cis 5-cyclopropyl-N-(4-methyl-1-(piperidin-4-ylsulfonyl)pyrrolidin-3-yl)isoxazole-3-carboxamide], for which the pIC50 is below 4.30.
For the compound `C[C@@H]1CN(C2CCN(C(=O)OC(C)(C)C)CC2)C[C@@H]1NC(=O)c1cc(C2CC2)on1` (racemic) [compound 80, (±)-cis-tert-butyl 4-(3-(5-cyclopropylisoxazole-3-carboxamido)-4-methylpyrrolidin-1-yl)piperidine-1-carboxylate], the pIC50 was 4.52.
